The source of these data is PubChem BioAssay (NCI).

Among the test systems are HCT-15 colon; COLO 205 colon; HL-60(TB) leukemia; NCI-H23 lung; CAKI-1 renal; SK-MEL-5 melanoma; BT-549 breast; RXF 393 renal; CCRF-CEM leukemia; NCI-H522 lung.
Common to all, as to test: NCI tumour cell line growth inhibition, 48 h

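Results reflect a 48-hour exposure of cells in 96-well plates to compound at five concentrations. Here, GI50 denotes the concentration required for 50% inhibition of growth. Definition used: TGI = concentration required for complete inhibition of growth.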

For `O=C(O)/C(Cc1ccnc2ccccc12)=N\O`, the TGI in the assay on HCT-15 colon, in the assay with COLO 205 colon, in the assay on HL-60(TB) leukemia, in the assay with NCI-H23 lung, in the assay on CAKI-1 renal and in the assay on SK-MEL-5 melanoma was over 100 µM each time. Besides, the TGI with BT-549 breast, in the assay with RXF 393 renal, in the assay with CCRF-CEM leukemia and in the assay with NCI-H522 lung was over 100 µM each time.

Take `O=C1/C(=C/c2ccc(F)cc2)CN(C(=O)CCN2CCC(=NO)CC2)C/C1=C\c1ccc(F)cc1`: the GI50 was 0.691 µM with HCT-15 colon; 1.94 µM in the assay with COLO 205 colon; 2.26 µM in the assay on HL-60(TB) leukemia; 1.92 µM in the assay with NCI-H23 lung; 1.57 µM in the assay with CAKI-1 renal; 1.73 µM in the assay with SK-MEL-5 melanoma. The GI50 in the assay on BT-549 breast was 1.58 µM; in the assay on RXF 393 renal it was 1.64 µM; with CCRF-CEM leukemia it was 0.514 µM; with NCI-H522 lung it was 1.24 µM. Moreover, the TGI was found to be 2.6 µM with HCT-15 colon; 5.5 µM with COLO 205 colon; 7.95 µM in the assay with HL-60(TB) leukemia; 4.47 µM in the assay on NCI-H23 lung; 3.92 µM in the assay on CAKI-1 renal; 3.26 µM with SK-MEL-5 melanoma. Besides, the TGI is 3.21 µM in the assay with BT-549 breast, 3.18 µM in the assay with RXF 393 renal, over 57.6 µM in the assay on CCRF-CEM leukemia and 3.53 µM with NCI-H522 lung.

Turning to `CS(=O)(=O)OCCCNCCCOS(C)(=O)=O`, the TGI in the assay on HCT-15 colon is 4680 µM; in the assay with COLO 205 colon, 4540 µM; with HL-60(TB) leukemia it was 2540 µM; in the assay on NCI-H23 lung it was 5630 µM; in the assay with CAKI-1 renal, 4280 µM; in the assay on SK-MEL-5 melanoma, 3220 µM. Besides, the TGI in the assay with BT-549 breast is 4500 µM; in the assay with RXF 393 renal, 5480 µM; with CCRF-CEM leukemia, 3130 µM; in the assay on NCI-H522 lung it was 5510 µM.

Take `CC(=O)N1CCN(CCNC(=O)n2cc(-c3ccncc3)c(-c3cc(O)cc(Cl)c3)n2)CC1`: the GI50 is 4.25 µM in the assay with HCT-15 colon; 6.26 µM in the assay on COLO 205 colon; 7.79 µM in the assay with HL-60(TB) leukemia; 17.1 µM in the assay with NCI-H23 lung; 13 µM in the assay on CAKI-1 renal; 3.66 µM with SK-MEL-5 melanoma. Further, the GI50 in the assay with BT-549 breast was 13 µM; in the assay with RXF 393 renal, 3.67 µM; in the assay on CCRF-CEM leukemia, 11.8 µM; in the assay on NCI-H522 lung, 14.9 µM. For the same molecule, the TGI with HCT-15 colon is 22.2 µM; with COLO 205 colon, 20.9 µM; with HL-60(TB) leukemia, 29 µM; in the assay with NCI-H23 lung, 46 µM; in the assay with CAKI-1 renal it was 38.1 µM; in the assay on SK-MEL-5 melanoma, 16.9 µM. The TGI turned out to be 27.1 µM in the assay with BT-549 breast, 17.7 µM in the assay with RXF 393 renal, 66.5 µM in the assay with CCRF-CEM leukemia and 34.1 µM in the assay on NCI-H522 lung.

Turning to `O=C(NNc1ccc(Cl)cc1)C1CCC(CNS(=O)(=O)c2ccccc2Cl)CC1` (stereo not drawn), the GI50 in the assay with HCT-15 colon was 5.68 µM; with HL-60(TB) leukemia it was 4.25 µM; in the assay with NCI-H23 lung, 15 µM; in the assay on CAKI-1 renal it was 2.9 µM; with SK-MEL-5 melanoma, 18.4 µM; in the assay on BT-549 breast, 21.6 µM. In addition, the GI50 in the assay with RXF 393 renal is 24.5 µM; in the assay with CCRF-CEM leukemia it was 39.2 µM; in the assay on NCI-H522 lung, 12.8 µM. Also, the TGI is 61.5 µM in the assay with HCT-15 colon; over 100 µM in the assay on HL-60(TB) leukemia; 50.6 µM in the assay with NCI-H23 lung; 12.6 µM with CAKI-1 renal; 39.2 µM in the assay with SK-MEL-5 melanoma; 52.6 µM in the assay with BT-549 breast. For the same molecule, the TGI in the assay with RXF 393 renal is 65.7 µM; in the assay with CCRF-CEM leukemia, over 100 µM; with NCI-H522 lung, 75.1 µM.

For the molecule `CCN(CC)CCCC(C)Nc1cc(-c2cccc(OC(F)(F)F)c2)nc2ccc(N3CCCC3)cc12` (stereo not drawn), the GI50 in the assay with HCT-15 colon was 0.0415 µM; in the assay on COLO 205 colon it was 0.213 µM; in the assay with HL-60(TB) leukemia, 0.0528 µM; in the assay on NCI-H23 lung it was 0.161 µM; in the assay on CAKI-1 renal, 0.0422 µM; with SK-MEL-5 melanoma it was 0.126 µM. The GI50 with BT-549 breast is 0.201 µM; in the assay on RXF 393 renal, 0.0357 µM; with CCRF-CEM leukemia it was 0.0564 µM; with NCI-H522 lung, 0.0249 µM. Further, the TGI was 12.4 µM in the assay on HCT-15 colon; 1.51 µM with COLO 205 colon; 2.06 µM in the assay with HL-60(TB) leukemia; over 64 µM in the assay on NCI-H23 lung; 31.5 µM in the assay with CAKI-1 renal; 0.589 µM with SK-MEL-5 melanoma. Besides, the TGI is 3.39 µM with BT-549 breast, 89.1 µM in the assay on RXF 393 renal, over 100 µM in the assay on CCRF-CEM leukemia and 0.5 µM in the assay on NCI-H522 lung.

Take `C1CN(c2nnc(N3CCC3)nn2)C1`: the TGI with HCT-15 colon is over 100 µM; in the assay with COLO 205 colon it was over 92.4 µM; in the assay on HL-60(TB) leukemia, over 100 µM; in the assay with NCI-H23 lung, 79.7 µM; in the assay on CAKI-1 renal it was over 100 µM; in the assay with SK-MEL-5 melanoma, 73.3 µM. Besides, the TGI is over 100 µM in the assay on BT-549 breast, over 74.5 µM in the assay with RXF 393 renal, over 100 µM with CCRF-CEM leukemia and 85.2 µM in the assay on NCI-H522 lung.

`S=C1Cc2c(-c3ccc(Br)cc3)cc(-c3ccccc3)nc2-c2ccccc2N1`: the TGI is 14.6 µM with HCT-15 colon; 21.4 µM in the assay with COLO 205 colon; over 100 µM with HL-60(TB) leukemia; 12.6 µM in the assay with NCI-H23 lung; 3.65 µM in the assay on CAKI-1 renal; 23.5 µM in the assay with SK-MEL-5 melanoma. The TGI in the assay on BT-549 breast is 18 µM; in the assay on RXF 393 renal, 6.01 µM; with CCRF-CEM leukemia, 11.2 µM; in the assay on NCI-H522 lung, 8.04 µM.

Consider `CN(C)CC1CC/C(=C\c2ccc3c(c2)OCO3)C1=O` (stereo not drawn), for which the TGI in the assay with HCT-15 colon turned out to be 15 µM; in the assay on COLO 205 colon it was 18 µM; with HL-60(TB) leukemia, 11 µM; with NCI-H23 lung, 24.4 µM; with CAKI-1 renal, 23.1 µM; in the assay on SK-MEL-5 melanoma, 28 µM. Moreover, the TGI in the assay with BT-549 breast amounted to 24.9 µM; in the assay with RXF 393 renal, 29.1 µM; with CCRF-CEM leukemia it was 19.7 µM; in the assay with NCI-H522 lung, 8.51 µM.

In the case of `CC(C)N(Cc1ccc(CN(C(=O)CCl)C(C)C)cc1)C(=O)CCl`, the GI50 with HCT-15 colon is 1.38 µM; with COLO 205 colon, 2.16 µM; in the assay with HL-60(TB) leukemia it was 1.95 µM; in the assay on NCI-H23 lung it was 1.1 µM; in the assay on CAKI-1 renal, 1.77 µM; in the assay with SK-MEL-5 melanoma, 0.451 µM. Besides, the GI50 is 1.87 µM with BT-549 breast, 1.33 µM with RXF 393 renal, 0.287 µM in the assay with CCRF-CEM leukemia and 0.156 µM with NCI-H522 lung. Also, the TGI in the assay with HCT-15 colon amounted to 3.64 µM; in the assay on COLO 205 colon it was 4.36 µM; with HL-60(TB) leukemia, 4.96 µM; with NCI-H23 lung, 3.6 µM; in the assay with CAKI-1 renal, 3.39 µM; with SK-MEL-5 melanoma, 1.81 µM. Also, the TGI with BT-549 breast amounted to 4.16 µM; in the assay with RXF 393 renal, 2.85 µM; in the assay on CCRF-CEM leukemia it was 0.865 µM; with NCI-H522 lung, 0.342 µM.
